Target: T1, SpIH (Strongylocentrotus purpuratus, UniProt O76977)
T1 sequence (O76977 1-767): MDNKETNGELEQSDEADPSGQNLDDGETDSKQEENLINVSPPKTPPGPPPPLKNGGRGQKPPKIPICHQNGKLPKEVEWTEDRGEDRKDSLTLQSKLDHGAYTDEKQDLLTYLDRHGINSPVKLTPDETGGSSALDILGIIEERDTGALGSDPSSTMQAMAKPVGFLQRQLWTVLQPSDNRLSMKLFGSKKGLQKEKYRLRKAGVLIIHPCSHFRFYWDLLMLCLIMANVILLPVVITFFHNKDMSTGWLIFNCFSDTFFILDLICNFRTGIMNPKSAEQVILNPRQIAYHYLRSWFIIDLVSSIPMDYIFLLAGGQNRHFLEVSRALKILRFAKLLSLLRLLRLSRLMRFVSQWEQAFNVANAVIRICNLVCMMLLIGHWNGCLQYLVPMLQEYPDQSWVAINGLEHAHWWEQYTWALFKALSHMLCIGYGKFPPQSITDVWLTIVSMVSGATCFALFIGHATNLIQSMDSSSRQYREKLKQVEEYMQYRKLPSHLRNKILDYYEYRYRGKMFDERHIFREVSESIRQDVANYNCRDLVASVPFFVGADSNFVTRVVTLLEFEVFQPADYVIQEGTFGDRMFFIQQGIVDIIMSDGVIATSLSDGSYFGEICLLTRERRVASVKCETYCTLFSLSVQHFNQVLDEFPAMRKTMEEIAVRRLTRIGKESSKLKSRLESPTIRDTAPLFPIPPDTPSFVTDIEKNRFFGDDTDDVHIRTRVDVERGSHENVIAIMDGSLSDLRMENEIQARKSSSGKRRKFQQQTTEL
Assay type: cell-based

For `CCCCCCCC(=O)OC[C@H](COP(=O)(O)O[C@H]1[C@H](O)[C@@H](O)[C@H](OP(=O)(O)O)[C@@H](O)[C@H]1O)OC(=O)CCCCCCC` [diC8-PIP], the IC50 was 13.6 µM.

From article PMC3083228 (The Journal of Biological Chemistry, 2011)
